# Results taken from ChEMBL document CHEMBL1156829 (Proc Natl Acad Sci U S A, 2008).
# How the values were obtained:
# [1] = system: Plasmodium falciparum; assay: NOVARTIS: Inhibition of Plasmodium falciparum 3D7 (drug-susceptible) proliferation in erythrocyte-based infection assay; format: functional, organism-based; conditions: Plasmodium falciparum, 3D7
# [2] = system: Plasmodium falciparum; assay: NOVARTIS: Inhibition of Plasmodium falciparum W2 (drug-resistant) proliferation in erythrocyte-based infection assay; format: functional, organism-based; conditions: Plasmodium falciparum, W2; read-out: EC50
# [3] = NOVARTIS: Cytotoxicity against human hepatocellular carcinoma cell line (Huh7); format: toxicity, cell-based, Huh-7; conditions: Huh7 cells (hepatocellular carcinoma cell line)
Structure (SMILES),EC50 [1] [nM],EC50 [2] [nM],CC50 [3] [nM]
COC(C)(C)CNCc1cc2cc3c(cc2n(Cc2cccc(C(F)(F)F)c2)c1=O)CCC3,> 1250,> 198,> 10000
CCOc1ccc(Nc2ccnc3cc(Cl)ccc23)cc1,956,986,> 100000
CN(C)CCCn1c(N)c(-c2nc3ccccc3[nH]2)c2nc(C#N)c(C#N)nc21,463,274,60200
CN1CCN(c2ccc(Nc3c4ccccc4nc4ccccc34)cc2)CC1,56.7,95.5,6760
COC(=O)c1cnn(-c2ccccc2)c1C=NOC(=O)c1ccccc1,> 5290,2380,> 100000
Nc1nc(N)c2nc(CCc3ccc(C(=O)N[C@H](CCC(=O)O)C(=O)O)cc3)cnc2n1,29.5,1.78,8.1
CCOc1cccc2c1N(C(=O)c1ccc(C)cc1)C(C)(C)C1=C2C2(SC(C(=O)OC)=C(C(=O)OC)S2)C(C(=O)OC)=C(C(=O)OC)S1,1080,663,> 10000
COc1ccc(-n2nc(C(C)(C)C)cc2NC(=O)CN(C(=O)c2ccc(C(C)(C)C)cc2)C(C)C)cc1,1680,1850,34600
CC(C)(C)CC(=O)NCCCCNc1ccnc2cc(Cl)ccc12,20.7,102,> 12200
O=C(NCCCCNc1ccnc2cc(Cl)ccc12)c1ccccc1Cl,761,< 13.7,> 12000
CCC(C)N1CCN(Cc2cccc(OC)c2OC)CC1 (configuration not stated),> 1250,> 169,> 10000
O=C(c1ccncc1)N1N=C(c2c(-c3ccccc3)c3cc(Br)ccc3[nH]c2=O)CC1c1ccccc1 (configuration not stated),144,1540,8700
O=c1oc(-c2ccccc2F)nc2sc3c(c12)CCCC3,> 12500,1570,> 100000
Cc1ccn2c(NC(C)(C)CC(C)(C)C)c(-c3ccccc3OC(=O)C(C)(C)C)nc2c1,520,< 7.9,> 11100
COc1ccc(NC(=O)N(CCCNS(=O)(=O)c2ccc([N+](=O)[O-])cc2)c2ccc(Oc3ccccc3)cc2)cc1,733,114,> 7770
CC1CN(C(=O)C(Cl)(Cl)Cl)C(C)CN1C(=O)C(Cl)(Cl)Cl (configuration not stated),2050,302,> 100000
O=C(Nc1cc(Cl)cc(Cl)c1)C1C2C=CC3(O2)C1C(=O)N(CCC1=CCCCC1)C3C(=O)NC1CCCCC1 (configuration not stated),> 11000,1710,> 100000
CCN1C(=O)NC(c2cccc(NC(=O)Nc3cc(C(F)(F)F)cc(C(F)(F)F)c3)c2)C(C(=O)OC(C)C)=C1C (configuration not stated),8420,6010,35300
CCN(CC)C(CN1CCN(CC(C)C(=O)c2ccc(O)cc2)CC1)c1ccc(F)cc1 (configuration not stated),1950,4310,49000
COc1ccc(C2SCCN2S(=O)(=O)c2cccc([N+](=O)[O-])c2)cc1OC (configuration not stated),> 1250,> 676,> 10000
COc1cc(OC)cc(N2C(=O)N(Cc3ccc(C(C)(C)C)cc3)c3ccccc3S2(=O)=O)c1,3750,6300,> 100000
O=C(COC(c1cccs1)c1cccnc1Cl)N1CCN(C(=O)Nc2ccccc2)CC1 (configuration not stated),> 12500,1420,> 100000
O=C(Nc1ccc(C2=NCCN2)cc1)Nc1cc(C(=O)Nc2ccc(C3=NCCN3)cc2)ccc1C(=O)Nc1ccc(C2=NCCN2)cc1,99.7,62.9,> 10000
O=C(CCNS(=O)(=O)c1ccc(Br)s1)N1CCc2ccccc2C1,> 5600,> 12500,> 100000
CCc1ccc(-n2c(C(CC)N(CCc3ccccc3)C(=O)c3cc(OC)cc(OC)c3)nc3ccccc3c2=O)cc1 (configuration not stated),> 547,292,> 10000

Structure (SMILES),EC50 [1] [nM],EC50 [2] [nM],CC50 [3] [nM]
C[n+]1oc(/C=C/c2ccccc2)cc1/C=C/c1ccccc1,110,88.8,> 10000
O=C1CN(C(=O)CCC2CCCC2)C(c2ccc(F)cc2)c2cc(F)ccc2N1 (configuration not stated),666,230,60300
CCCCCCCCCC(=O)Oc1ccccc1-c1nc2cc(C)ccn2c1NC(C)(C)CC(C)(C)C,1010,88.8,> 10000
CCN1CCC(N2CCC(n3c(C4CCC4)nc4cc(F)ccc43)CC2)CC1,453,2170,21500
CCNC(=O)NS(=O)(=O)c1cnccc1Sc1cccc(C)c1,> 1030,> 1250,> 10000
FC(F)(F)COc1nc(N2CCCCC2)nc(N(c2ccccc2)c2ccccc2)n1,> 5970,2790,> 100000
CCOc1cc(C(=O)Nc2ccc(-c3nc4ccccc4[nH]3)cc2)cc(OCC)c1OCC,229,763,40000
N=C1NC(=O)C(=CC=Cc2ccc([N+](=O)[O-])o2)S1,707,1460,7210
CCOc1ccc(C(=O)C[N+]2=C(C)c3ccc(C)n3CC2)cc1,1630,767,> 100000
COc1ccc(Cn2cccc(C(=O)Nc3ccc(OC)cc3)c2=O)cc1,> 12500,3110,42500
Cc1cc(C)cc(OCC(=O)N2N=C(C(C)C)CC2(O)C(F)(F)F)c1 (configuration not stated),1750,> 1220,> 10000
COc1ccccc1C(=O)ON=C(N)Cc1cccc2ccccc12,352,212,49600
N#Cc1ccc(N2CCCN(C(=S)NC3CCCC3)CC2)nc1,650,330,> 100000
CCc1c(C(=O)N2CCN(C(=O)CCl)C(C)C2)cnn1-c1nc(-c2ccc(Br)cc2)cs1 (configuration not stated),656,481,> 8660
Cc1ccc(C)c(Oc2c(C(F)(F)F)oc3c(CN4CCN(C)CC4)c(O)ccc3c2=O)c1,832,185,> 100000
CCC(=O)N1CCOc2c(cc(-c3csc4ccccc34)cc2OCCc2ccccn2)C1,> 1620,1350,> 10000
CCCCn1c(=N)n(CC(O)c2ccc(Cl)c(Cl)c2)c2ccccc21 (configuration not stated),62.5,120,6240
CN1CCc2cc3c(c4c2C1Cc1ccccc1-4)OCO3 (configuration not stated) [ROEMERINE],93.1,112,22300
O=C1C(Nc2ccc(Cl)cc2)=C(N2CCCCC2)C(=O)c2ccccc21,319,250,53200
CC(=O)N(C1=C(N2CCCC2)C(=O)c2ccccc2C1=O)c1ccc(F)cc1,646,75.9,25800
COc1ccc2c(c1)c(C)cc[n+]2Cc1ccccc1,86.2,118,20700
Cn1nc(C(F)(F)F)c(C(=O)Nc2ccc(Cl)cc2)c1Sc1ccc(Cl)cc1,749,369,34800
Cc1[nH]n(-c2ccccc2)c(=O)c1C(=O)CN(C(=O)c1ccc2c(c1)OCO2)C(C)C,> 469,> 1250,> 10000
COc1ccccc1CNc1ncc(C(=O)NCc2ccccc2)c(NCCc2ccccc2)n1,1280,> 1300,> 10000
